Assays:
[1] = test system: Mouse Hepatoma H22; test: Kunming mouse Hepatoma H22 model, in vivo tumor growth; conditions: for Tumor Size (Mean ± SD, g) / Tumor Inhibition (%): Table 2.2; for Tumor Size (Mean ± SD, g) / Tumor Inhibition (%) / Compared to Glucose group Inhibition (%) / Compared to Saline group Inhibition (%) / Tumor size Mean ± SD: 10 days; for Tumor Inhibition (%): vs saline; for Compared to Glucose group Inhibition (%) / Compared to Saline group Inhibition (%) / Tumor size Mean ± SD: Table 6.2
Procedure: (§1) (2) Kunming mouse Hepatoma H22 model: Mouse Hepatoma H22 ascites tumor cells, 1×10E6 cells in 0.2 ml saline per mouse, were injected subcutaneously to the right axillary space of 5- to 6-week old Kunming mice.
(§2) C. […] The amount of either tested drug for one kg mouse was prepared as 10 ml solution, and 10 micro-liters per gram of mouse were injected intraperitoneally, once or twice daily, for 10 consecutive days for the Kunming mice with Sarcoma S-180 and Hepatoma H22, and for 15 consecutive days for C57BL/6 mice with melanoma B16. 50% glucose, 30 ml/kg, was given by gavage to selected groups of mice receiving the tested drug 60 to 90 minutes before each injection. One group of mice received saline only while another group of mice received the glucose treatment without the tested drug; these groups served as the saline-only control and the glucose-only control, respectively. A third group of mice received intraperitoneal injection of cyclophosphamide (CTX), or 5-Fluorouracil (5FU), 25 to 50 mg/kg body weight, was included in some experiments as positive control. At the end of the experiment, mouse body weight was taken, and the Sarcoma S-180, or Hepatoma H22 tumors were dissected and weighted, while the tumor size of melanoma B16 was measured using a caliper. Melanoma B16 tumor volume was calculated using the following equation: Tumor volume=S*S*L*0.5, where S is the short diameter, and L stands for long diameter of the tumor according to Beck M T et al. (Cancer Research 63:3598, 2003).

[2] = test system: Mouse Sarcoma S-180; test: Kunming mouse Sarcoma S-180 model, in vivo tumor growth; conditions: for Tumor Size (Mean ± SD, g) / Tumor Inhibition (%) / Tumor Weight (Mean ± SD, g) / Tumor Inhibition Rate (%): 10 days; for Tumor Weight (Mean ± SD, g) / Tumor Inhibition Rate (%): Table 3.2
Procedure: (§3) (1) Kunming mouse Sarcoma S-180 model: Mouse Sarcoma S-180 ascites tumor cells, 1×10E6 cells resuspended in 0.2 ml saline per mouse, were injected subcutaneously to the right axillary space of 5- to 6-week old Kunming mice.
as §2

[3] = test system: Mouse melanoma B16; test: C57BL/6 mouse melanoma B16 model, tumor growth; type: in vivo; conditions: for Tumor Size (Mean ± SD, mm3) / Tumor Inhibition (%): Table 4.2, 1 dose/day, 15 days; for Tumor Inhibition (%): vs saline
Procedure: (§4) (3) C57BL/6 mouse melanoma B16 model: Mouse melanoma B16 cells, 1×10E7 cells in 0.2 ml of saline per mouse, were injected subcutaneously into right axillary space of 6 to 8 week old C57BL/6 mice. The mice were randomly divided into groups after tumor cell inoculation.
as §2

[4] = Body weight of mice bearing Sarcoma S-180; conditions: CTX 30 mg/kg i.p., 1 dose/day, 10 days
Procedure: as §3, §2

[5] = Body weight of mice bearing Hepatoma H22; conditions: Table 2.1; CTX 25 mg/kg i.p., 1 dose/day, 10 days
Procedure: as §1
as §2, with “A third group of mice received intraperitoneal injection of cyclophosphamide (CTX), or 5-Fluorouracil (5FU), 25 to 50 mg/kg body weight, was included in some experiments as positive control.” left out

[6] = Body weight of mice with B16 melanoma; conditions: Table 4.1; CTX 50 mg/kg i.p., 1 dose/day, 15 days
Procedure: as §4
as §2, with “A third group of mice received intraperitoneal injection of cyclophosphamide (CTX), or 5-Fluorouracil (5FU), 25 to 50 mg/kg body weight, was included in some experiments as positive control.” left out

[7] = human, in vivo; cited from earlier work
[8] = test system: human melanoma xenographts; conditions: a dose of MIBG under hyperglycemic conditions, SCID mice; cited from earlier work
[9] = Toxicity observation during URIN and MAIN administration in tumor-bearing mice; type: in vivo; conditions: i.p., up to 4480 mg/kg once or twice daily
Procedure: as §2

[10] = cited from earlier work
[11] = MAIN H 3750 mg/kg i.p., 2 doses/day, glucose pre-treatment
[12] = MAIN L 1500 mg/kg i.p., 2 doses/day, glucose pre-treatment
[13] = MAIN M 2500 mg/kg i.p., 2 doses/day, glucose pre-treatment
[14] = URIN 4480 mg/kg i.p., 2 doses/day, no glucose
[15] = URIN H 4480 mg/kg i.p., glucose pre-treatment
[16] = URIN L 1680 mg/kg i.p., glucose pre-treatment

O=P1(N(CCCl)CCCl)NCCCO1 (stereo not shown) [CTX, cyclophosphamide]
Tumor Size (Mean ± SD, g) ([1]; CTX 25 mg/kg i.p., 1 dose/day): 1.21 ± 0.37 g
Tumor Inhibition (%) ([1]; CTX 25 mg/kg i.p., 1 dose/day): 48.1%
Tumor Size (Mean ± SD, g) ([2]; Table 1.2, CTX 30 mg/kg i.p., 1 dose/day): 0.53 ± 0.14 g
Tumor Inhibition (%) ([2]; Table 1.2, CTX 30 mg/kg i.p., 1 dose/day, vs saline): 61.3%
Tumor Weight (Mean ± SD, g) ([2]; CTX 30 mg/kg i.p., 1 dose/day): 0.53 ± 0.22 g
Tumor Inhibition Rate (%) ([2]; CTX 30 mg/kg i.p., 1 dose/day, vs saline): 73.0%
Tumor Size (Mean ± SD, mm3) ([3]; CTX 50 mg/kg i.p.): 118 ± 100 mm3
Tumor Inhibition (%) ([3]; CTX 50 mg/kg i.p.): 97%
Body weight (Mean ± SD, g) End ([4]; Table 1.1): 23.5 ± 1.7 g
Body weight (Mean ± SD, g) Start ([4]; Table 1.1): 21.9 ± 1.1 g
Body weight (Mean ± SD, g) End ([4]; Table 3.1): 23.0 ± 2.9 g
Body weight (Mean ± SD, g) Start ([4]; Table 3.1): 21.4 ± 1.0 g
Body weight (Mean ± SD, g) End [5]: 32.6 ± 2.5 g
Body weight (Mean ± SD, g) Start [5]: 24.6 ± 1.0 g
Body weight (Mean ± SD, g) End [6]: 18.6 ± 1.6 g
Body weight (Mean ± SD, g) Start [6]: 20.3 ± 1.5 g

C1N2CN3CN1CN(C2)C3.O=C(O)C(O)c1ccccc1 (stereo not shown) [MAIN, methenamine mandelate]
Compared to Glucose group Inhibition (%) [1, 11]: 38.7%
Compared to Saline group Inhibition (%) [1, 11]: 51.4%
Tumor size Mean ± SD [1, 11]: 1.03 ± 0.66 g
Compared to Glucose group Inhibition (%) [1, 12]: 6.0%
Compared to Saline group Inhibition (%) [1, 12]: 25.5%
Tumor size Mean ± SD [1, 12]: 1.58 ± 0.42 g
Compared to Glucose group Inhibition (%) [1, 13]: 6.5%
Compared to Saline group Inhibition (%) [1, 13]: 25.5%
Tumor size Mean ± SD [1, 13]: 1.57 ± 0.74 g
Tumor Size (Mean ± SD, g) ([2]; Table 5.2, MAIN H 3714 mg/kg i.p., 2 doses/day, glucose pre-treatment): 1.25 ± 0.41 g
Tumor Inhibition (%) ([2]; Table 5.2, MAIN H 3714 mg/kg i.p., 2 doses/day, glucose pre-treatment, vs glucose group): 45.9%
Tumor Size (Mean ± SD, g) ([2]; Table 5.2, MAIN L 1485 mg/kg i.p., 2 doses/day, glucose pre-treatment): 2.14 ± 0.60 g
Tumor Inhibition (%) ([2]; Table 5.2, MAIN L 1485 mg/kg i.p., 2 doses/day, glucose pre-treatment, vs glucose group): 7.4%
Tumor Size (Mean ± SD, g) ([2]; Table 5.2, MAIN M 2320 mg/kg i.p., 2 doses/day, glucose pre-treatment): 1.85 ± 0.62 g
Tumor Inhibition (%) ([2]; Table 5.2, MAIN M 2320 mg/kg i.p., 2 doses/day, glucose pre-treatment, vs glucose group): 19.9%
Side effects resulting from long term use [7]: negligible

N=C(N)NCc1cccc(I)c1 [MIBG, m-Iodpbenzylguanidine]
Reduction of extracellular pH of tumor [8]: up to 0.59 units

O=c1[nH]cc(F)c(=O)[nH]1 [5FU, 5-Fluorouracil]
Compared to Glucose group Inhibition (%) ([1]; 5FU 25 mg/kg i.p., 1 dose/day): 71.4%
Compared to Saline group Inhibition (%) ([1]; 5FU 25 mg/kg i.p., 1 dose/day): 77.4%
Tumor size Mean ± SD ([1]; 5FU 25 mg/kg i.p., 1 dose/day): 0.48 ± 0.25 g

C1N2CN3CN1CN(C2)C3 [URIN, Methenamine]
Tumor Size (Mean ± SD, g) [1, 14]: 1.37 ± 0.39 g
Tumor Inhibition (%) [1, 14]: 41.2%
In vivo growth of mouse tumor Hepatoma H22 (conclusion) ([1]; administration of URIN): significantly inhibited
Tumor Size (Mean ± SD, g) ([2]; Table 1.2, URIN 4480 mg/kg i.p., 2 doses/day, no glucose): 1.07 ± 0.31 g
Tumor Inhibition (%) ([2]; Table 1.2, URIN 4480 mg/kg i.p., 2 doses/day, no glucose, vs saline): 21.9%
Tumor Weight (Mean ± SD, g) ([2]; URIN H 4480 mg/kg i.p., 2 doses/day, glucose pre-treatment): 1.25 ± 0.41 g
Tumor Inhibition Rate (%) ([2]; URIN H 4480 mg/kg i.p., 2 doses/day, glucose pre-treatment, vs saline): 36.2%
Tumor Weight (Mean ± SD, g) ([2]; URIN L 1680 mg/kg i.p., 2 doses/day, glucose pre-treatment): 1.54 ± 0.56 g
Tumor Inhibition Rate (%) ([2]; URIN L 1680 mg/kg i.p., 2 doses/day, glucose pre-treatment, vs saline): 21.4%
Tumor Weight (Mean ± SD, g) ([2]; URIN M 2800 mg/kg i.p., 2 doses/day, glucose pre-treatment): 1.57 ± 0.50 g
Tumor Inhibition Rate (%) ([2]; URIN M 2800 mg/kg i.p., 2 doses/day, glucose pre-treatment, vs saline): 19.9%
In vivo growth of mouse tumor Sarcoma S-180 (conclusion) ([2]; administration of URIN): significantly inhibited
Death from drug toxicity [9]: No mouse died of URIN toxicity
Tumor Size (Mean ± SD, mm3) [3, 15]: 2755 ± 1098 mm3
Tumor Inhibition (%) [3, 15]: 32.1%
Tumor Size (Mean ± SD, mm3) [3, 16]: 3376 ± 1419 mm3
Tumor Inhibition (%) [3, 16]: 16.7%
Tumor Size (Mean ± SD, mm3) ([3]; URIN M 2800 mg/kg i.p., glucose pre-treatment): 4241 ± 1834 mm3
Tumor Inhibition (%) ([3]; URIN M 2800 mg/kg i.p., glucose pre-treatment, value in bracket = increased rate): (−14.6%)
In vivo growth of mouse tumor B16 Melanoma (conclusion) ([3]; administration of URIN): significantly inhibited
Stability in a pH-neutral medium ([10]; pH-neutral medium): very stable
Liberation of formaldehyde in serum and normal tissue ([10]; serum and normal tissue): does not liberate formaldehyde
